Data reported in patent US20090221559A1 (priority 2005, published 2009).
pEC50, pIC50: −log10 of the molar value. Read-outs that look alike come from different tables or passages of the source.

Columns and labels:
[1] = biological target: T1, HCV NS5B polymerase (His-tagged, C-terminal 21 amino acid deleted NS5B, HC-J4) (Hepatitis C virus genotype 1b, UniProt O92972); assay: NS5b polymerase assay (biochemical RdRp assay, 3H-GTP incorporation, SPA beads); parameters: species or system HCV genotype 1b; conditions: for IC50: NS5B Polymerase Assay IC50 (μM)
T1 construct: The cDNA encoding NS5B amino acid 1-570 (HC-J4, genotype 1b); His tag (His6, from pET-21b) (C); made in house; host or cells: E. coli BL21 (DE3)
Procedure, shortened: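 His-tagged C-terminal-21-aa-deleted NS5B (genotype 1b, HC-J4) at 200 nM was preincubated 15 min at RT with compound on 5′-biotinylated oligo(rG13)/poly(rC) template/primer before NTPs. Reaction with 600 nM GTP plus 0.1 μCi 3H-GTP and 5 mM MgCl2 in Tris pH 7.5 ran 2 h at 25 °C. Stopped with EDTA/SPA beads for incorporation counting.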

[2] = system: HCV replicon RNA replication in Huh-7 luc/neo (Huh-Luc) cells; assay: HCV replicon assay (stable replicon cell reporter assay, luciferase read-out); format: cell-based, HCV type 1b; conditions: for EC50: read-out: Replicon Assay EC50 (μM), Huh-Luc cells, incubation of three days, luciferase activity
Procedure, shortened: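 Huh-7 cells stably carry a bicistronic HCV 1b NS3-NS5B subgenomic replicon with firefly luciferase and neo markers. Cells were plated with compound across a concentration range and incubated three days. Replication was measured as luciferase activity to give dose-response curves.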

[3] = NS5B Polymerase Assay IC50, 200 nM enzyme, 3H-GTP incorporation, 2 h at 25° C.
[4] = Hepatitis C virus, Huh-7, 72 h, read-out: Replicon Assay EC50, Huh-Luc cells, three days incubation, luciferase activity
[5] = 200 nM enzyme, 3H-GTP incorporation, 2 h at 25° C., read-out: NS5B Polymerase Assay IC50
[6] = Huh-Luc cells, three days incubation, luciferase activity, read-out: Replicon Assay EC50

T1 sequence (O92972 2417-3000, looked up, stated change not applied): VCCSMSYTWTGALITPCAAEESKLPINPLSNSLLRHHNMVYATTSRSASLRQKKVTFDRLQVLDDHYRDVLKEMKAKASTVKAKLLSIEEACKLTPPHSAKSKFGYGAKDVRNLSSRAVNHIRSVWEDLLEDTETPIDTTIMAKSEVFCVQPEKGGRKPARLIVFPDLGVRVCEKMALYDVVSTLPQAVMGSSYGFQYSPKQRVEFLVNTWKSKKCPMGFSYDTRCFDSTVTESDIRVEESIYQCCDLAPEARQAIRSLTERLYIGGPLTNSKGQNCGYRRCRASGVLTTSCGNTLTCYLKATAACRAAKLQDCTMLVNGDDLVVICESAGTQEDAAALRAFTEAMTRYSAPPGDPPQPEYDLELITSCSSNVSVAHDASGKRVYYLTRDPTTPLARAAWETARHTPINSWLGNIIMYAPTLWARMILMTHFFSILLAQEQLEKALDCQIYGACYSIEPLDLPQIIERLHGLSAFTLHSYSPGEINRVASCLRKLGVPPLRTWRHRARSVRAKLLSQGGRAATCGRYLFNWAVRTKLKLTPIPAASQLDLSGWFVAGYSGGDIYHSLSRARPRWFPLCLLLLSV

Compound | pIC50 [1, 3] | pEC50 [2, 4] | IC50 [1] [µM] | EC50 ([2]; Hepatitis C virus, Huh-7, 72 h) [µM] | other results
CC(=O)N1c2ccccc2NC2=C(C(=O)CC(C)(C)C2)C1c1ccc(-c2cccc(C(=O)O)c2)o1 (stereo not drawn) [compound 280] | < 4.37 | < 4.49 |  |  | 
CC(=O)N1c2ccccc2NC2=C(C(=O)CC(C)(C)C2)C1c1ccc(OCc2ccccn2)cc1 (stereo not drawn) [compound 141, 10-acetyl-3,3-dimethyl-11-[4-(2-pyridylmethoxy)phenyl]-2,3,4,5,10,11-hexahydro-1H-dibenzo[b,e][1,4]diazepin-1-one] | 5.10 | 4.79 |  |  | 
COc1ccc(C2Nc3ccccc3NC3=C2C(=O)CC(C)(C)C3)cc1OCc1ccccc1 (stereo not drawn) [compound 424] |  |  | 11.6 | 12.5 | 
CC1(C)CC(=O)C2=C(C1)Nc1ccccc1NC2c1cccc(OC(=O)c2ccc(Cl)cc2)c1 (stereo not drawn) [compound 431, 11-[3-(4-Chlorobenzoyloxy)phenyl]-3,3-dimethyl-2,3,4,5,10,11-hexahydro-dibenzo[b,e][1,4]diazepin-1-one] |  |  | 82.9 | > 100 | 
COc1ccc(C2C3=C(CC(C)(C)CC3=O)Nc3ccccc3N2C(C)=O)cc1COc1ccc(F)cc1 (stereo not drawn) [compound 59] | < 4.37 | 5.24 |  |  | 
COc1cc(C2Nc3ccccc3NC3=C2C(=O)CC(c2ccccc2)C3)cc(OC)c1OC (stereo not drawn) [compound 339] |  |  | > 42.7 | 9.15 | 
Cc1ccc(C2Nc3ccccc3NC3=C2C(=O)CC(c2ccc(Cl)cc2)C3)cc1 (stereo not drawn) [compound 409] |  |  | > 33.3 | 14.9 | 
CC(=O)N1c2ccccc2NC2=C(C(=O)CC(C)(C)C2)C1c1ccccc1Cl (stereo not drawn) [compound 112] | < 4.37 | < 4.49 |  |  | 
COc1ccc(C2CC(=O)C3=C(C2)Nc2ccccc2NC3c2ccc(Cl)cc2)cc1 (stereo not drawn) [compound 416] |  |  | > 33.3 | 11.2 | 
COc1ccc(C2C3=C(CC(c4ccc(C)cc4)CC3=O)Nc3ccccc3N2C(=O)C(F)(F)F)cc1 (mixture of isomers) [compound 194] |  |  |  |  | pIC50 [1, 5]: < 4.48; pEC50 [2, 6]: 5.28
COc1ccc(C2C3=C(CC(C)(C)CC3=O)Nc3ccccc3N2C(=O)C(F)(F)F)cc1 (stereo not drawn) [compound 110] | < 4.37 | 5.09 |  |  | 
CC1(C)CC(=O)C2=C(C1)Nc1ccccc1N(C(=O)C(F)(F)F)C2c1cccc([N+](=O)[O-])c1 (stereo not drawn) [compound 47] | < 4.37 | 4.79 |  |  | 
CCn1c2ccccc2c2cc([C@@H]3Nc4ccccc4NC4=C3C(=O)C[C@@H](c3ccc(Cl)cc3)C4)ccc21 [compound 480] |  |  | > 42.7 | 5.7 | 
CC(=O)N1c2ccccc2NC2=C(C(=O)CC(C)(C)C2)C1c1ccc2c(c1)OCO2 (stereo not drawn) [compound 284] | < 4.37 | 4.51 |  |  | 
CC(=O)N1c2ccccc2NC2=C(C(=O)CC(C)(C)C2)C1c1c(Cl)cccc1Cl (stereo not drawn) [compound 50] | < 4.37 | < 4.49 |  |  | 
O=C1CC(c2ccccc2OCc2ccccc2)CC2=C1C(C(Br)=Cc1ccccc1)Nc1ccccc1N2 (mixture of isomers) [compound 498] |  |  |  |  | pIC50 ([1]; read-out: NS5B Polymerase Assay IC50): < 3.88; pEC50 ([2]; Huh-Luc cells, incubation of three days, luciferase activity, read-out: Replicon Assay EC50): 5.53
CC1(C)CC(=O)C2=C(C1)Nc1ccccc1N(C(=O)C(F)(F)F)C2c1ccc([N+](=O)[O-])cc1 (stereo not drawn) [compound 89] | < 4.37 | 5.27 |  |  | 
CC1(C)CC(=O)C2=C(C1)Nc1ccccc1N(C(=O)Cc1ccc(Cl)cc1)C2c1cccs1 (stereo not drawn) [compound 245] | < 4.37 | 5.46 |  |  | 
Cc1ccc(C2CC(=O)C3=C(C2)Nc2ccccc2NC3c2ccccc2Cl)cc1 (stereo not drawn) [compound 411] |  |  | > 33.3 | 17.9 | 
CC1(C)CC(=O)C2=C(C1)Nc1ccccc1NC2c1cc(Cl)ccc1Cl (stereo not drawn) [compound 438, 11-[2,5-dichlorophenyl]-3,3-dimethyl-2,3,4,5,10,11-hexahydro-1H-dibenzo[b,e][1,4]diazepin-1-one] |  |  | > 133 | 15.4 | 
CCCCCC(=O)N1c2ccccc2NC2=C(C(=O)CC(c3ccccc3OCCC)C2)C1c1ccc(OC)cc1 (stereo not drawn) [compound 222] |  |  |  |  | pIC50 [1, 5]: < 4.37; pEC50 [2, 6]: 5.11
COc1ccc(C2CC(=O)C3=C(C2)Nc2ccccc2NC3c2cccc(F)c2)cc1 (stereo not drawn) [compound 327] |  |  | > 33.3 | 12.5 | 
CC1(C)CC(=O)C2=C(C1)Nc1ccccc1NC2c1cc2c(cc1[N+](=O)[O-])OCO2 (stereo not drawn) [compound 505] |  |  | > 42.7 | 13.5 | 
COc1ccc(OC)c(C2Nc3ccccc3NC3=C2C(=O)CC(c2ccc(Cl)cc2)C3)c1 (stereo not drawn) [compound 356] |  |  | > 42.7 | 16.1 | 

Compound | pIC50 [1, 3] | pEC50 [2, 4] | IC50 [1] [µM] | EC50 ([2]; Hepatitis C virus, Huh-7, 72 h) [µM] | other results
CC1(C)CC(=O)C2=C(C1)Nc1ccccc1N(C(=O)C(F)(F)F)C2c1ccco1 (stereo not drawn) [compound 276] | < 4.37 | < 4.49 |  |  | 
Cc1cc2c(cc1C)NC(c1ccc(Cl)cc1Cl)C1=C(CC(C)(C)CC1=O)N2 (stereo not drawn) [compound 464, 11-(2,4-Dichlorophenyl)-2,3,4,5,10,11-hexahydro-3,3,7,8-tetramethyl-1H-dibenzo[b,e][1,4]diazepin-1-one] |  |  | > 133 | 82.7 | 
O=C1CC(c2ccc(Cl)cc2)CC2=C1C(c1cccc([N+](=O)[O-])c1)N(C(=O)C(F)(F)F)c1ccccc1N2 (mixture of isomers) [compound 202] |  |  |  |  | pIC50 [1, 5]: < 4.48; pEC50 [2, 6]: 5.01
O=C1CC(c2ccc(Cl)cc2)CC2=C1C(c1cccc(Cl)c1)Nc1ccccc1N2 (stereo not drawn) [compound 350] |  |  | 25.1 | 5.21 | 
COc1ccc(OC)c(C2C3=C(CC(C)(C)CC3=O)Nc3ccccc3N2C(=O)Cc2ccccc2)c1 (stereo not drawn) [compound 22] | < 4.37 | 4.97 |  |  | 
CCCN1c2ccccc2NC2=C(C(=O)CC(C)(C)C2)C1c1ccc(Cl)cc1Cl (stereo not drawn) [compound 509, 11-(2,4-Dichlorophenyl)-2,3,4,5,10,11-hexahydro-3,3-dimethyl-10-propyl-1H-dibenzo[b,e][1,4]diazepin-1-one] |  |  | > 42.7 | 0.894 | 
CC(=O)N1c2cccc(Br)c2NC2=C(C(=O)CC(C)(C)C2)C1c1ccc(Cl)cc1Cl (stereo not drawn) [compound 312] | 5.21 | 5.11 |  |  | 
CC1(C)CC(=O)C2=C(C1)Nc1ccccc1NC2c1coc2c(Cl)cc(Cl)cc2c1=O (stereo not drawn) [compound 502] |  |  | > 42.7 | 13.2 | 
CCCCOc1ccc(C2CC(=O)C3=C(C2)Nc2ccccc2N(C(=O)c2ccccc2)C3c2ccccc2)cc1 (stereo not drawn) [compound 167] |  |  |  |  | pIC50 [1, 5]: < 4.37; pEC50 [2, 6]: 5.49
CCN1c2ccccc2NC2=C(C(=O)CC(C)(C)C2)C1c1ccc(Cl)cc1Cl (stereo not drawn) [compound 508, 11-(2,4-dichlorophenyl)-10-ethyl-2,3,4,5,10,11-hexahydro-3,3-dimethyl1H-dibenzo[b,e][1,4]diazepin-1-one] |  |  | > 42.7 | 1.37 | 
CC(C)C(=O)N1c2ccccc2NC2=C(C(=O)CC(C)(C)C2)C1c1ccccc1F (stereo not drawn) [compound 23] | < 4.37 | 4.69 |  |  | 
CC1(C)CC(=O)C2=C(C1)Nc1ccccc1NC2c1ccc(O)cc1 (stereo not drawn) [compound 440, 3,3-dimethyl-11-(4-hydroxyphenyl)-2,3,4,5,10,11-hexahydro-1H-dibenzo[b,e][1,4]diazepin-1-one] |  |  | > 133 | > 100 | 
CC1(C)CC(=O)C2=C(C1)Nc1ccccc1N(C(=O)C(F)(F)F)C2c1ccccc1Cl (stereo not drawn) [compound 87] | < 4.37 | < 4.49 |  |  | 
COc1ccc(C2C3=C(CC(C)(C)CC3=O)Nc3ccccc3N2C(=O)c2ccc(F)cc2)cc1 (stereo not drawn) [compound 33] | < 4.37 | 4.61 |  |  | 
COc1ccc(C2CC(=O)C3=C(C2)Nc2ccccc2NC3c2ccc(C)c([N+](=O)[O-])c2)cc1 (stereo not drawn) [compound 359] |  |  | > 42.7 | 7.33 | 
O=C1CC(c2ccc(Cl)cc2)CC2=C1C(c1ccccc1OCc1ccccc1)Nc1ccccc1N2 (stereo not drawn) [compound 366] |  |  | > 42.7 | 5.31 | 
COc1ccc(C2CC(=O)C3=C(C2)Nc2ccccc2NC3c2cccc(OC)c2OC)cc1OC (stereo not drawn) [compound 401] |  |  | > 42.7 | 2.88 | 
CCOc1cc(C2C3=C(CC(C)(C)CC3=O)Nc3ccccc3N2C(=O)c2ccccc2)ccc1O (stereo not drawn) [compound 64] | < 4.37 | 4.64 |  |  | 
CC1(C)CC(=O)C2=C(C1)Nc1ccccc1N(C(=O)Cc1ccc(Cl)cc1)C2c1cccnc1 (stereo not drawn) [compound 247] | < 4.48 | 4.76 |  |  | 
CCC(=O)N1c2ccccc2NC2=C(C(=O)CC(C)(C)C2)C1c1ccc(OC)cc1OC (stereo not drawn) [compound 75] | < 4.37 | 4.69 |  |  | 
CC(=O)N1c2ccccc2NC2=C(C(=O)CC(C)(C)C2)C1c1ccc(C)o1 (stereo not drawn) [compound 283] | < 4.37 | < 4.49 |  |  | 
COc1ccc(C2CC(=O)C3=C(C2)Nc2ccccc2NC3c2ccccc2OC)cc1OC (stereo not drawn) [compound 369] |  |  | > 42.7 | 10 | 
CC(=O)N1c2ccccc2NC2=C(C(=O)CC(C)(C)C2)C1c1ccc(Oc2ccccc2)cc1 (stereo not drawn) [compound 134, 10-acetyl-11-(4-phenoxyphenyl)-3,3-dimethyl-2,3,4,5,10,11-hexahydro-1H-dibenzo[b,e][1,4]diazepin-1-one] | 4.33 | 5.33 |  |  | 
CCCCCC(=O)N1c2ccccc2NC2=C(C(=O)CC(c3ccc(C)cc3)C2)C1c1ccccc1Cl (mixture of isomers) [compound 182] |  |  |  |  | pIC50 [1, 5]: < 4.37; pEC50 [2, 6]: 5.74
